Measurements reported in ChEMBL document CHEMBL1681699 (Bioorg Med Chem, 2011).

How the values were obtained:
[1] = system: Blood; test: Biodistribution in Sprague-Dawley rat blood at 3.7 x 10^3 to 5.55 x 10'3 GBq, iv after 30 mins; format: ADME, organism-based; conditions: in vivo, 0.5 h
[2] = system: Blood; test: Biodistribution in Sprague-Dawley rat blood at 3.7 x 10^3 to 5.55 x 10^3 GBq, iv after 60 mins; format: ADME, organism-based; conditions: in vivo, 1 h
[3] = system: Lung; test: Biodistribution in Sprague-Dawley rat lung at 3.7 x 10^3 to 5.55 x 10^3 GBq, iv after 5 mins; format: ADME, organism-based; conditions: in vivo
[4] = system: Lung; test: Biodistribution in Sprague-Dawley rat lung at 3.7 x 10^3 to 5.55 x 10'3 GBq, iv after 30 mins; format: ADME, organism-based; conditions: in vivo, 0.5 h
[5] = system: Lung; test: Biodistribution in Sprague-Dawley rat lung at 3.7 x 10^3 to 5.55 x 10^3 GBq, iv after 60 mins; format: ADME, organism-based; conditions: in vivo, 1 h
[6] = system: Liver; test: Biodistribution in Sprague-Dawley rat liver at 3.7 x 10^3 to 5.55 x 10^3 GBq, iv after 5 mins; format: ADME, organism-based; conditions: in vivo
[7] = system: Liver; test: Biodistribution in Sprague-Dawley rat liver at 3.7 x 10^3 to 5.55 x 10'3 GBq, iv after 30 mins; format: ADME, organism-based; conditions: in vivo, 0.5 h
[8] = system: Liver; test: Biodistribution in Sprague-Dawley rat liver at 3.7 x 10^3 to 5.55 x 10^3 GBq, iv after 60 mins; format: ADME, organism-based; conditions: in vivo, 1 h
[9] = system: Muscle tissue; test: Biodistribution in Sprague-Dawley rat muscle at 3.7 x 10^3 to 5.55 x 10^3 GBq, iv after 5 mins; format: ADME, organism-based; conditions: in vivo
[10] = system: Muscle tissue; test: Biodistribution in Sprague-Dawley rat muscle at 3.7 x 10^3 to 5.55 x 10'3 GBq, iv after 30 mins; format: ADME, organism-based; conditions: in vivo, 0.5 h
[11] = system: Muscle tissue; test: Biodistribution in Sprague-Dawley rat muscle at 3.7 x 10^3 to 5.55 x 10^3 GBq, iv after 60 mins; format: ADME, organism-based; conditions: in vivo, 1 h
[12] = Biodistribution in Sprague-Dawley rat fat at 3.7 x 10^3 to 5.55 x 10^3 GBq, iv after 5 mins; format: ADME, organism-based, Adipose tissue; conditions: in vivo
[13] = Biodistribution in Sprague-Dawley rat fat at 3.7 x 10^3 to 5.55 x 10'3 GBq, iv after 30 mins; format: ADME, organism-based, Adipose tissue; conditions: in vivo, 0.5 h
[14] = Biodistribution in Sprague-Dawley rat fat at 3.7 x 10^3 to 5.55 x 10^3 GBq, iv after 60 mins; format: ADME, organism-based, Adipose tissue; conditions: in vivo, 1 h
[15] = system: Heart; test: Biodistribution in Sprague-Dawley rat heart at 3.7 x 10^3 to 5.55 x 10^3 GBq, iv after 5 mins; format: ADME, organism-based; conditions: in vivo
[16] = system: Heart; test: Biodistribution in Sprague-Dawley rat heart at 3.7 x 10^3 to 5.55 x 10'3 GBq, iv after 30 mins; format: ADME, organism-based; conditions: in vivo, 0.5 h
[17] = system: Heart; test: Biodistribution in Sprague-Dawley rat heart at 3.7 x 10^3 to 5.55 x 10^3 GBq, iv after 60 mins; format: ADME, organism-based; conditions: in vivo, 1 h
[18] = system: Kidney; test: Biodistribution in Sprague-Dawley rat kidney at 3.7 x 10^3 to 5.55 x 10^3 GBq, iv after 5 mins; format: ADME, organism-based; conditions: in vivo
[19] = system: Kidney; test: Biodistribution in Sprague-Dawley rat kidney at 3.7 x 10^3 to 5.55 x 10'3 GBq, iv after 30 mins; format: ADME, organism-based; conditions: in vivo, 0.5 h
[20] = system: Kidney; test: Biodistribution in Sprague-Dawley rat kidney at 3.7 x 10^3 to 5.55 x 10^3 GBq, iv after 60 mins; format: ADME, organism-based; conditions: in vivo, 1 h
[21] = system: Testes; test: Biodistribution in Sprague-Dawley rat testes at 3.7 x 10^3 to 5.55 x 10^3 GBq, iv after 5 mins; format: ADME, organism-based, Testis; conditions: in vivo
[22] = system: Testes; test: Biodistribution in Sprague-Dawley rat testes at 3.7 x 10^3 to 5.55 x 10'3 GBq, iv after 30 mins; format: ADME, organism-based, Testis; conditions: in vivo, 0.5 h
[23] = system: Testes; test: Biodistribution in Sprague-Dawley rat testes at 3.7 x 10^3 to 5.55 x 10^3 GBq, iv after 60 mins; format: ADME, organism-based, Testis; conditions: in vivo, 1 h
[24] = system: Brain; test: Biodistribution in Sprague-Dawley rat brain at 3.7 x 10^3 to 5.55 x 10^3 GBq, iv after 5 mins; format: ADME, organism-based; conditions: in vivo
[25] = system: Brain; test: Biodistribution in Sprague-Dawley rat brain at 3.7 x 10^3 to 5.55 x 10'3 GBq, iv after 30 mins; format: ADME, organism-based; conditions: in vivo, 0.5 h
[26] = system: Brain; test: Biodistribution in Sprague-Dawley rat brain at 3.7 x 10^3 to 5.55 x 10^3 GBq, iv after 60 mins; format: ADME, organism-based; conditions: in vivo, 1 h
[27] = system: Cortex; test: Biodistribution in Sprague-Dawley rat cortex at 3.7 x 10^3 to 5.55 x 10^3 GBq, iv after 5 mins; format: ADME, organism-based; conditions: in vivo
[28] = system: Cortex; test: Biodistribution in Sprague-Dawley rat cortex at 3.7 x 10^3 to 5.55 x 10'3 GBq, iv after 30 mins; format: ADME, organism-based; conditions: in vivo, 0.5 h
[29] = system: Cortex; test: Biodistribution in Sprague-Dawley rat cortex at 3.7 x 10^3 to 5.55 x 10^3 GBq, iv after 60 mins; format: ADME, organism-based; conditions: in vivo, 1 h
[30] = Biodistribution in Sprague-Dawley rat hippocampus at 3.7 x 10^3 to 5.55 x 10^3 GBq, iv after 5 mins; format: ADME, organism-based; conditions: in vivo

Drug uptake [1]: 0.065 % ID/g
Drug uptake [2]: 0.047 % ID/g
Drug uptake [3]: 0.317 % ID/g
Drug uptake [4]: 0.155 % ID/g
Drug uptake [5]: 0.09 % ID/g
Drug uptake [6]: 2.766 % ID/g
Drug uptake [7]: 3.395 % ID/g
Drug uptake [8]: 3.364 % ID/g
Drug uptake [9]: 0.093 % ID/g
Drug uptake [10]: 0.059 % ID/g
Drug uptake [11]: 0.039 % ID/g
Drug uptake [12]: 0.124 % ID/g
Drug uptake [13]: 0.075 % ID/g
Drug uptake [14]: 0.1 % ID/g
Drug uptake [15]: 0.264 % ID/g
Drug uptake [16]: 0.102 % ID/g
Drug uptake [17]: 0.068 % ID/g
Drug uptake [18]: 1.229 % ID/g
Drug uptake [19]: 0.366 % ID/g
Drug uptake [20]: 0.314 % ID/g
Drug uptake [21]: 0.16 % ID/g
Drug uptake [22]: 0.098 % ID/g
Drug uptake [23]: 0.068 % ID/g
Drug uptake [24]: 0.162 % ID/g
Drug uptake [25]: 0.066 % ID/g
Drug uptake [26]: 0.056 % ID/g
Drug uptake [27]: 0.133 % ID/g
Drug uptake [28]: 0.044 % ID/g
Drug uptake [29]: 0.044 % ID/g
Drug uptake [30]: 0.169 % ID/g
Structure (SMILES): [11CH3]n1cc(-c2ccncc2)c(-c2ccc(OCc3ccc4ccccc4n3)cc2)n1
